This is an account of results in patent publication US6071913A, “Angiotensin II receptor antagonistic 1,2,4-triazin-5-one derivatives” (Development Center for Biotechnology, priority 1997, dated 2000).

What is called IC50 is the concentration that gives 50% inhibition.

The first experiment has as its target T1, Angiotensin II Type I Receptor (Homo sapiens, UniProt P30556).
T1 construct: purchased NEN Research Products NED-014
T1 sequence (P30556 1-359): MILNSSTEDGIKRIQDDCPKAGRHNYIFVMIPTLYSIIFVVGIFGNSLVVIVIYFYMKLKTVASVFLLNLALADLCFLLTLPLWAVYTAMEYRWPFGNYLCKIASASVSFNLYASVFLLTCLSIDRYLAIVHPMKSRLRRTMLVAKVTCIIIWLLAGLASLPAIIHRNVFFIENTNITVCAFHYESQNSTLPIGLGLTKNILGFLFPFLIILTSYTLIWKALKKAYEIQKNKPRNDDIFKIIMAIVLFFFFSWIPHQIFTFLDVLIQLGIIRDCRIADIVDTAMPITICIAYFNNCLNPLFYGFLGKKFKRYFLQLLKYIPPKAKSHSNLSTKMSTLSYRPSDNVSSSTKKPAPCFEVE
Put plainly: Binding affinity to Angiotensin II receptor ([125I]-Sar1,Ile8-Angiotensin II radioligand, Angiotensin II Type I Receptor Kit NED-014). Conditions: concentration of compound corresponding to 50% inhibition; EBDA software, inhibition at 7 different concentrations; 3 hours incubation; read-out: IC50. As for the experimental part: The binding affinity of the compounds of the above Examples I to IX to angiotensin II receptor was tested. The procedures and results are as follows:
Assay for the Binding Affinity to Angiotensin II Receptor
The antagonistic activity of angiotensin II receptor was assayed by Angiotensin II Type I Receptor Kit (NED-014 NENQUEST Drug Discovery System, NEN Research Products, Massachusettes, USA). The kit comprises Angiotensin II Type I Receptor Concentrate, radioligand [^125 I]-Sar^1,Ile^8 -Angiotensin II Concentrate (5 Ci), Standard Concentrate (DuP 753, […]), Diluent Concentrate, and Filter-Soak Concentrate. In accordance with the manual of
NED-014 kit, the Radioligand Concentrate, Receptor Concentrate and Filter-Soak Concentrate were diluted with deionized water, and stored under suitable temperatures (-70° C. or ambient temperature).
1. Filter Device: Hoefer FH 224 V, Hoefer Scientific Instruments Inc., California, USA; Vacuum pressure=15 in. Hg.
2. γ-Counter: Beckman 5500, Beckman Instruments Inc., […]., USA.
The reagents were thawed on ice on the day of assays. Two sets of tubes, each with two tubes, were used, one for non-specific binding (NSB) and the other for total binding (TB). A series of standard solutions (with the final concentrations of 0.5, 1, 2, 5, 10, 20, 50 and 100 nM) were prepared. The tested compounds were dissolved and diluted to 500 nM for preliminary screening. […] To the NSB tubes were added 25 μL Standard Concentrate solutions, to the TB tubes were added 25 μL Diluent Concentration, and to other tubes were added 25 μL the solutions of tested compounds. Then, 25 μL radioligand were added to each tube (including the two tubes for total counts, TC). The two TC tubes were used later for the determination of the dosage of radioligand added to each tube. To the rest tubes, 200 μL Receptor Concentration solutions were added. The tubes were allowed to stand for 3 hours to reach equibilium completely. Filter papers (Sigma Catalog No. 1822024) were soaked in the Filter-Soak solution, and placed in the filter device. The contents in the tubes were poured onto the filter papers, and washed with saline twice. The slightly dry filter papers were placed into the γ-counter and counted with two minutes counter.
The data are expressed as counts per minute (CPM). Net CPM for Specific Binding of standards or tested compounds is defined as the CPM thereof minus that of NSP and calculated by equation 1:
CPMnet =CPMtested compounds or standard -CPMnon-specific
With the above equation, the Net CPM for Specific Binding of tested compounds and standards can be obtained.
Inhibition (% B/B0) is defined as the net CPM for Specific Binding over that of standard at 0 concentration and calculated by equation 2:
Inhibition (% B/B0) of tested compound=CPMnet of standard at 0
IC50 is defined as the concentration of compound corresponding 50% inhibition. IC50 of tested compounds can be obtained with EBDA software by calculating the inhibition (% B/B0) of the tested compounds at 7 different concentrations. In addition, as the binding activity of a series of compounds is correlated with receptors, IC50 of the tested compounds can also be obtained by equation 3 established from known IC50 and inhibition (% B/B0) of the series compounds: […]
For `CCCCc1nc(=O)c(-c2ccccc2)nn1Cc1ccc(-c2ccccc2-c2nnn[nH]2)cc1` [N, 6-phenyl-3-butyl-5-oxo-2-[[2'-(1H-tetrazol-5-yl)biphenyl-4-yl]methyl]-1,2,4-triazine], the IC50 is 336 nM. As for `CCCCc1nc(=O)c(CCc2ccccc2)nn1Cc1ccc(-c2ccccc2-c2nnn[nH]2)cc1` [S, 6-(2'-phenylethyl)-3-butyl-5-oxo-2-[[2'-(1H-tetrazol-5-yl)biphenyl-4-yl]methyl]-1,2,4-triazine], the IC50 was determined as 67.5 nM. Take `CCCCc1nnc(CCc2ccccc2)c(=O)n1Cc1ccc(-c2ccccc2-c2nnn[nH]2)cc1` [T, 6-(2'-phenylethyl)-3-butyl-5-oxo-4-[[2'-(1H-tetrazol-5-yl)biphenyl-4-yl]methyl]-1,2,4-triazine]: the half-inhibitory concentration (IC50) came to 55.1 nM.

The same experiment, now with this note: marked * Calculated; read-out: IC50 (*Calculated).
As to `CCCCc1nnc(C)c(=O)n1Cc1ccc(-c2ccccc2-c2nnn[nH]2)cc1` [L, 6-methyl-3-butyl-5-oxo-4-[[2'-(1H-tetrazol-5-yl)biphenyl-4yl]methyl]-1,2,4-triazine], the IC50 is 310 nM. In the case of `CCCCc1nc(Cl)c(CCc2ccccc2)c(=O)n1Cc1ccc(-c2ccccc2-c2nnn[nH]2)cc1` [V, 2-butyl-5-(2'-phenylethyl)-6-chloro-3-[[2'-(1H-tetrazol-5-yl)biphenyl-4-yl]methyl]-4(3H)-pyrimidinone], the IC50 is 72 nM. As to `CCCCc1nnc(-c2ccccc2)c(=O)n1Cc1ccc(-c2ccccc2-c2nnn[nH]2)cc1` [O, 6-phenyl-3-butyl-5-oxo-4-[[2'-(1H-tetrazol-5-yl)biphenyl-4-yl]methyl]-1,2,4-triazine], the IC50 is 62.6 nM.
